# Measurements taken from patent US12501899B2, “Mite infestation treatment” (priority 2019, dated 2025).
# Where a name gives a salt, the structure may show the parent alone. Read-outs that look alike come from different tables or passages of the source.
# Key:
# bees (Apis mellifera) = settings: for bees killed / bee mortality / bees killed: 1 μL on bee thorax; for bees killed / bee mortality: time not stated (monitored up to 24 hours); for mortality / toxicity for the bees: after 24 hours
# Procedure: (§1) The bees were then dispatched in the boxes (10 per box).
# (§2) The bees were then put to sleep for a few minutes using CO2 (flow of 3 liters for 20 seconds) in order to deposit 1 μL of compound to be tested on their thorax using a pipette. It should be noted that the bees which received romifidine hydrochloride at a concentration of 10 μg/μL received 2 μL of product. The bees were unconscious for the time the compound to be tested was deposited, that is to say around three minutes, then they woke up.
# (§3) After thoracic deposition of the compound to be tested, the 10 bees from the same box were transferred to a box containing the 10 Varroa mites (cf. “Preparation of Varroa mites” above). Liquid sugar was left in each of the boxes to feed the bees during the observations. The series of boxes was then placed in an oven at […] with a humidity of 50% in order to approximate hive conditions as closely as possible.
# (§4) The mortality of Varroa mites and bees was then monitored 5 minutes, 2 hours, 4 hours and 24 hours after application of the compound to be tested to the bees. Dead Varroa mites correspond to Varroa mites detached from the bees. Dead bees correspond to bees which no longer move and which are often placed on their thorax.
# (§5) The following compositions were applied to the thorax of the bees: • Solvent, • Amitraz at 1 μg/μL in acetone, • Clonidine hydrochloride at 100 μg/μL, 10 μg/μL, 1 μg/μL and 0.1 μg/μL in methanol, • Detomidine hydrochloride monohydrate at 1 μg/μL in methanol, • Dexmedetomidine hydrochloride at 100 μg/μL, 10 μg/μL, 1 μg/μL and 0.1 μg/μL in methanol, • Romifidine hydrochloride at 10 μg/μL and at 5 μg/μL in methanol, • Tizanidine hydrochloride at 1 μg/μL in methanol, • Medetomidine hydrochloride at 0.1 μg/μL in ethanol, • Levomedetomidine hydrochloride at 100 μg/μL, 10 μg/μL, 1 μg/μL and 0.1 μg/μL in methanol, • Octopamine at 1 μg/μL in ethanol. Results
# Varroa destructor = system: Varroa destructor
# Procedure: About 300 bees (Apis mellifera) infected with Varroa destructor were taken from a hive superinfected with Varroa destructor. The bees were then placed in a device allowing to detach Varroa mites attached to the bees (device described in Community model n° 003419415-0001) filled with icing sugar. The device was stirred for 2 minutes to sample the Varroa mites attached to the bees. The icing sugar allows to interfere between the bee and the Varroa mite that was attached thereto. Varroa mites were harvested with icing sugar because they pass through the holes in the device, unlike bees. The Varroa mites were then separated from the icing sugar.
# The Varroa mites thus recovered were dispatched in boxes (10 Varroa mites per box).
# as §1, §2, §3, §4, §5
structure (smiles),measurement,setting,value
NCC(O)c1ccc(O)cc1 (stereo not drawn) [Octopamine],bees killed / bee mortality,bees (Apis mellifera); 1 μg/μL,zero
same,Varroacid effect (in words),Varroa destructor; 1 μg/μL in ethanol,No Varroacid effect
"Clc1cccc(Cl)c1NC1=NCCN1 [Clonidine hydrochloride, N-(2,6-dichlorophenyl)-4,5-dihydro-1H-imidazol-2-amine]",bees killed / bee mortality,bees (Apis mellifera); 1 μg/μL,zero mortality
same,bees killed,bees (Apis mellifera); 10 μg/μL,10%
same,bees killed,bees (Apis mellifera); 100 μg/μL,10%
same,kinetics of the Varroacid effect (in words),Varroa destructor; full efficiency after 24 hours,rather slow compared to the positive control
"Clc1ccc2nsnc2c1NC1=NCCN1 [Tizanidine hydrochloride, 4-Chloro-N-(4,5-dihydro-1H-imidazol-2-yl)-8-thia-7,9-diazabicyclo, nona-2,4,6,9-tetraen-5-amine]",mortality / toxicity for the bees,bees (Apis mellifera); 1 μg/μL,without toxicity
"Fc1cccc(Br)c1NC1=NCCN1 [Romifidine hydrochloride, N-(2-bromo-6-fluorophenyl)-4,5-dihydro-1H-imidazol-2-amine]",Bee mortality,"bees (Apis mellifera); all doses (10 and 5 μg/μL), even after 24 hours",zero
same,mortality of Varroa mites,"Varroa destructor; 5 μg/μL, 24 hours, compared with 10 μg/μL at 4 hours",same level of mortality
same,mortality of Varroa mites,"Varroa destructor; 2 μl of product at 10 μg/μL, after 2 hours",75%
same,mortality of Varroa mites,"Varroa destructor; 2 μl of product at 10 μg/μL, after 4 hours",95%
"Cc1cccc(Cc2cnc[nH]2)c1C [Detomidine hydrochloride monohydrate, 4-[(2,3-dimethylphenyl)-methyl]-3H-imidazole]",mortality for the bees,"bees (Apis mellifera); 1 μg/μL, after 2 hours",without mortality
same,mortality / toxicity for the bees,bees (Apis mellifera); 1 μg/μL,without mortality
same,Varroa mites killed,"Varroa destructor; 1 μg/μL, after 2 hours",40%
same,Varroa mites killed / Varroa mite mortality,"Varroa destructor; 1 μg/μL, after 24 hours",100%
